{
  "source": "patent US20230391808A1",
  "about": "“PHOSPHAPHENALENE-GOLD(I) COMPLEXES AS CHEMOTHERAPEUTIC AGENTS AGAINST GLIOBLASTOMA” (priority 2020, published 2023)",
  "key": {"NCH82 [1]": {"system": "NCH82", "conditions": "Deponte M. et al. 2005; read-out: IC50, proliferation of NCH82; cited from earlier work"}, "NCH89 [2]": {"system": "NCH89", "conditions": "Deponte M. et al. 2005; read-out: IC50, proliferation of NCH89; cited from earlier work"}, "NCH82 [3]": {"system": "NCH82", "experiment": "Crystal violet proliferation assay, NCH82", "format": "cell-based, human", "conditions": "glioblastoma cell line, 48 h exposure, mean of three biological replicates ± standard deviation"}, "NCH89 [4]": {"system": "NCH89", "experiment": "Crystal violet proliferation assay, NCH89", "format": "cell-based, human", "conditions": "glioblastoma cell line, 48 h exposure, mean of three biological replicates ± standard deviation"}, "NCH149": {"system": "NCH149", "experiment": "Crystal violet proliferation assay, NCH149", "format": "cell-based, human", "conditions": "glioblastoma cell line, 48 h exposure, mean of three biological replicates ± standard deviation", "method": "In order to investigate the role of the fused phosphaphenalene ring in the bio-activity of the drug, the ability of Compound 5 to inhibit cell proliferation in the glioblastoma cell lines NCH82, NCH89 and NCH149 was examined. For this purpose, cells were incubated with increasing concentrations of Compound 5 and cell proliferation was evaluated by crystal violet assay.\nThe effect of different compounds on cell growth was evaluated by the crystal violet method as described earlier (J. P. Rigalli et al., Cancer Lett. 2016, 376, 165-172). Briefly, cells were seeded in 96-well plates (10,000 cells/well). After 24 h cell culture medium was replaced by fresh compound-containing medium (ten different concentrations (0.01 to 200 μM μM)). After 48 h of exposure extent of cell proliferation inhibition was determined by crystal violet staining of surviving cells. Therefore, cells were washed and stained with 0.5% crystal violet solution (2.5 g in 100 ml methanol, diluted with 400 ml aqua bidest) for 15 min, rinsed and dried overnight.\nNext, crystal violet was solubilized in methanol and absorbance was measured at 555 nm. The proliferative index was calculated as crystal violet absorption intensity as percentage relative to baseline (no cells) as described before (T. Peters et al., Naunyn Schmiedebergs Arch Pharmacol. 2006, 372, 291-299.) Cell survival plotted against the decimal logarithm of drug concentration in μM (c (of compound x) in μM) and fitted to a sigmoidal dose-response curve using Graph Pad Prism 7.02 (GraphPad Software, San Diego, USA)."}, "[5]": {"experiment": "Stability under controlled thermodynamic conditions upon repetitive cycles of illumination", "format": "physicochemical", "conditions": "data not shown"}, "[6]": {"system": "NCH82, NCH89, NCH125, and NCH210 cells", "experiment": "Wound-healing (scratch) assay, tumor cell migration", "format": "cell-based, human", "method": "Besides an increased tumor cell proliferation, a highly invasive cell growth drives malignancy of GBM. To obtain a more complete picture of the anti-cancer action of the compounds according to the invention, the effects of compound 4 on GBM cell invasion were investigated using a conventional wound-healing assay with NCH82, NCH89, NCH125, and NCH210 cells.\nThe results of the wound-healing assay are depicted in FIG. 2. […] The cells were imaged at 0 hours (t0) and at 24 hours (t1) after introducing the scrape. Cell migration was assessed by measuring cell-free areas at t0 and their reduction at t1.\nTo assess the effect of the drugs on cell migration in vitro cells were seeded in 6-well plates (5×10^5/Well) and left to attach. On the next day the cell monolayer was scraped in a straight line to create a “scratch” with a p200 pipet tip. […] Phase contrast images were acquired at 0 h and after 12 h of exposure to the respective drug concentration using a BX50 microscope with a SC30 camera (both Olympus, Tokyo, Japan). The cell-free areas at both time points were quantified and compared using the imaging software cellSens (Olympus, Tokyo, Japan)."}, "NCH82 [7]": {"system": "NCH82", "experiment": "Annexin V apoptosis assay (flow cytometry), NCH82", "format": "cell-based, human", "conditions": "drug concentration of 2 μM, 48 hour-incubation (FIG. 3B)", "method": "(§1) Thus, after a 48 hour-incubation period with different concentrations of Compound 4, the conventional GBM cells and GSCs were analyzed by flow cytometry. Annexin V and propidium iodide (PI) were used as indicators for apoptosis/necrosis. In line with the obtained IC50 values listed in Table 2, NCH82 cells appeared to be the most sensitive GBM cell line.\nTo quantitate the extent of apoptosis and necrosis, either annexin V staining combined with DAPI or double labeling of cells with annexin V and propidium iodide (PI) was used. The double labeling allows the distinction between apoptotic (annexin V^pos/DAPI^neg or annexin V^pos/PI^neg) and necrotic (annexin V^pos/DAPI^pos or annexin V^pos/PI^pos) cells. […]\nAfter treatment supernatant containing apoptotic and necrotic cells was collected, cells were harvested, washed, and up to 1×10^6 cells were incubated with FITC-conjugated annexin V antibody diluted in 1:1000 DAPI solution following manufactures instructions (#51-65874X, BD Bioscienes, Franklin Lakes, USA) or incubated with FITC-conjugated annexin V antibody and PI for 15 min following manufacturer instructions (#51-65974X, BD Biosciences, Franklin Lakes, USA). Cells were acquired by flow cytometry using a BD LSRII flow cytometer (BD Bioscienes, Franklin Lakes, USA) and analyzed by FlowJo Software v7.6.5 (TreeStar, Ahland, USA)."}, "NCH89 [8]": {"system": "NCH89", "experiment": "Annexin V apoptosis assay (flow cytometry), NCH89", "format": "cell-based, human", "method": "(§2) It was further analyzed whether Compound 4 could sensitize GBM cells (NCH82 and NCH89) and GSCs (NCH421k, NCH644, and NCH660h) to apoptosis. The increase of apoptotic/necrotic cells with increasing concentrations of Compound 4 is illustrated in FIG. 3.\nas §1\n(§3) To quantitate the extent of apoptosis and necrosis, either annexin V staining combined with DAPI or double labeling of cells with annexin V and propidium iodide (PI) was used. The double labeling allows the distinction between apoptotic (annexin V^pos/DAPI^neg or annexin V^pos/PI^neg) and necrotic (annexin V^pos/DAPI^pos or annexin V^pos/PI^pos) cells. Cells were seeded in a 6-well plate (2.5×10^5/well) and left to attach overnight. Medium was replaced by fresh medium containing defined drug concentrations or compound solvent DMSO (untreated control) and incubated for 24 h. As positive control cells were treated with 1 μM of the apoptosis-inducing reagent staurosporin (#9953, Cell Signaling Technology, Danvas, USA). […]"}, "[9]": {"system": "GSCs (NCH421k, NCH644, and NCH660h)", "experiment": "Annexin V apoptosis assay (flow cytometry), GSCs", "format": "cell-based, human", "conditions": "48 hour-incubation (FIG. 3C)", "method": "as §2, §1, §3"}, "Solubility in solvents": {"experiment": "Solubility in solvents", "format": "physicochemical", "excerpt": "Importantly, all compounds 1-4 readily dissolved in DMSO/H2O mixtures 1:9. Compound 1 was the least soluble and started to precipitate at concentrations higher than 0.1 M."}, "[10]": {"experiment": "Stability in dimethylsulfoxide/H2O solutions", "format": "physicochemical", "conditions": "over weeks"}, "thioredoxin reductase": {"molecular_target": "thioredoxin reductase (Homo sapiens, UniProt Q16881)", "sequence (Q16881 151-649 limits assumed)": "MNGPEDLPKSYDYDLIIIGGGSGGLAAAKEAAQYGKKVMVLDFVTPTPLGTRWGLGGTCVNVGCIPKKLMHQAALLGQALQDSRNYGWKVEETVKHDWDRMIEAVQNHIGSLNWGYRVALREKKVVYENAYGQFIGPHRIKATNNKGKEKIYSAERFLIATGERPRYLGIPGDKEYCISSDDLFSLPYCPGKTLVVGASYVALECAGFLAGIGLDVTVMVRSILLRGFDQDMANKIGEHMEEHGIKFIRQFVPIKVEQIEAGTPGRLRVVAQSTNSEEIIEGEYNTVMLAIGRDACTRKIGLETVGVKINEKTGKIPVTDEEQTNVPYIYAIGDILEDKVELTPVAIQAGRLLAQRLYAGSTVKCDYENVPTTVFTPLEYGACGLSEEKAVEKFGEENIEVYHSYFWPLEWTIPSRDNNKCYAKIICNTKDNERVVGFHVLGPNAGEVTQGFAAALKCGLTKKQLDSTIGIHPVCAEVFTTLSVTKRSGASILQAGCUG", "conditions": "Jortzik E. et al. 2014; cited from earlier work"}, "[11]": {"molecular_target": "human glutathione reductase (Homo sapiens, UniProt P00390)", "sequence (P00390 44-522)": "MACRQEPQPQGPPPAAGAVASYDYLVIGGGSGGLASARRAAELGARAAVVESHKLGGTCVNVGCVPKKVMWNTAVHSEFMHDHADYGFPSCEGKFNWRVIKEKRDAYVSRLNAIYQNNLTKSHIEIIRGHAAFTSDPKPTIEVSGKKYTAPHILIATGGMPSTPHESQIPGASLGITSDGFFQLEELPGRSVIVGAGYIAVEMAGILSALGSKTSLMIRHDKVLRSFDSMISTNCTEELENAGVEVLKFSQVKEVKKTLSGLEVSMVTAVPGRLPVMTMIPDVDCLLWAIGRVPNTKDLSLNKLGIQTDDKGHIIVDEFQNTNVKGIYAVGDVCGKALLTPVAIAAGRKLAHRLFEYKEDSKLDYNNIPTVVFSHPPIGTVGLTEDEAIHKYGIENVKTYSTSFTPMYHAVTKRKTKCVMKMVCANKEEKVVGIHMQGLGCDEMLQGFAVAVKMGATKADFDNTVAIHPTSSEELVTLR", "conditions": "Jortzik E. et al. 2014; cited from earlier work"}},
  "note": "Read-outs that look alike come from different tables or passages of the source.",
  "data": [
    {"compound": "[Cl][Au][PH]1(c2ccccc2)C(c2ccccn2)=CC=C1c1ccccn1", "note": "[GoPI, [1-phenyl-2,5-di(2-pyridyl)phosphole]AuCl]", "values": [
      {"measurement": "IC50", "setting": "NCH82 [1]", "result": "12.5 ± 0.8", "unit": "µM"},
      {"measurement": "IC50", "setting": "NCH89 [2]", "result": "10.8 ± 0.8", "unit": "µM"}
    ]},
    {"compound": "CC(=O)OC[C@H]1O[C@@H]([S][Au-][P+]2(c3ccccc3)c3ccn(S(=O)(=O)c4ccccc4)c3-c3cccc4cccc2c34)[C@H](OC(C)=O)[C@@H](OC(C)=O)[C@@H]1OC(C)=O", "note": "(stereo partly drawn) [Compound 8]", "values": [
      {"measurement": "IC50", "setting": "NCH82 [3]", "result": 1.37, "unit": "µM"},
      {"measurement": "IC50", "setting": "NCH89 [4]", "result": 4.49, "unit": "µM"},
      {"measurement": "IC50", "setting": "NCH149", "result": 2.85, "unit": "µM"},
      {"measurement": "stability upon repetitive cycles of illumination", "setting": "[5]", "result": "very high stability"}
    ]},
    {"compound": "CC(=O)OCC1OC([S][Au][PH]2(c3ccccc3)c3cscc3-c3cccc4cccc2c34)C(OC(C)=O)C(OC(C)=O)C1OC(C)=O", "note": "(stereo not drawn) [Compound 4]", "values": [
      {"measurement": "wound closure compared to untreated control cells", "setting": "[6]; at least the corresponding IC50 concentrations, 24 hours", "result": "significantly decreased wound closure"},
      {"measurement": "wound closure", "setting": "[6]; concentrations c(IC50)/2 and c(IC50)/10, 24 hours", "result": "not significantly affected"},
      {"measurement": "induction of apoptosis, NCH82", "setting": "NCH82 [7]", "result": "induced apoptosis in a high percentage of cells"},
      {"measurement": "apoptotic/necrotic cells, NCH89", "setting": "NCH89 [8]; 1 μM, 2 μM, and 10 μM for 24 hours (FIG. 3A)", "result": "dose-dependent increase of apoptotic/necrotic cells"},
      {"measurement": "cell death, NCH89", "setting": "NCH89 [8]; concentration of 2 μM, 48 hour-incubation (FIG. 3B)", "result": "no cell death"},
      {"measurement": "induction of apoptosis, GSCs", "setting": "[9]", "result": "induction of apoptosis could be demonstrated but to a lesser extent"},
      {"measurement": "solubility in methanol, ethanol, DCM, CHCl3, Et2O and acetone", "setting": "Solubility in solvents", "result": "soluble"},
      {"measurement": "solubility in pentane and hexane", "setting": "Solubility in solvents", "result": "insoluble"}
    ]},
    {"compound": "[Cl][Au][PH]1(c2ccccc2)c2cscc2-c2cccc3cccc1c23", "note": "[Compound 1]", "values": [
      {"measurement": "concentration above which precipitation starts", "setting": "Solubility in solvents; DMSO/H2O mixtures 1:9", "result": "higher than 0.1 M"},
      {"measurement": "stability in dimethylsulfoxide/H2O solutions", "setting": "[10]", "result": "high stability"}
    ]},
    {"compound": "1-phenyl-bis(2-pyridyl)phosphole gold chloride thio-β-d-glucose tetraacetate [GoPI-sugar]", "values": [
      {"measurement": "IC50", "setting": "thioredoxin reductase", "result": 0.0043, "unit": "µM"},
      {"measurement": "IC50", "setting": "[11]", "result": 0.0885, "unit": "µM"}
    ]},
    {"compound": "Cn1ccc2c1-c1cccc3cccc(c13)[P+]2([Au-][Cl])c1ccccc1", "note": "(stereo not drawn) [Compound 5]", "values": [
      {"measurement": "IC50", "setting": "NCH82 [3]", "result": 8.1, "unit": "µM"},
      {"measurement": "IC50", "setting": "NCH89 [4]", "result": 15.1, "unit": "µM"},
      {"measurement": "IC50", "setting": "NCH149", "result": 8.87, "unit": "µM"}
    ]}
  ]
}
